Results on 13 molecules are retold here after US20120237446A1, “Compounds for binding and imaging amyloid plaques and their use” (BAYER PHARMA AKTIENGESELLSCHAFT, priority 2005, published 2012).

Data set [1] has as its target T1, human AD brain homogenate (ADH) (Homo sapiens, UniProt P05067).
T1 construct: from tissue; host or cells: frontal cortex (grey and white matter) of AD patients, homogenised in PBS
The data set is described as follows: Competition binding assay with a tritiated amyloid ligand using brain homogenate from AD patients. Conditions: competition with 10 nM tritiated amyloid ligand, 100 μg/mL AD frontal cortex homogenate, PBS 0.1% BSA, 3 h, room temperature. The procedure:
A competition assay with a tritiated amyloid ligand was performed in 96-well plates (Greiner bio-one; Cat. 651201; Lot. 06260130) using brain homogenate from AD patients. Homogenates were prepared by homogenizing (Ultra-Turrax, setting 2, 30 s, 24000 rpm) dissected frontal cortex containing grey matter and white matter from AD patients in phosphate buffered saline (PBS, pH 7.4). The homogenate with a concentration of 100 mg wet tissue/mL was divided into aliquots of 300 μL and stored at −80° C. Varying concentrations of the unlabeled test substances were incubated with 100 μg/mL homogenate and 10 nM of the tritiated ligand in PBS, 0.1% BSA (final volume 200 μL) for 3 h at room temperature. Subsequently the binding mixture was filtered through Whatman GF/B filters (wetted with PBS, 0.1% BSA) using a Filtermate 196 harvester (Packard). Filters were then washed twice with PBS, 0.1% BSA and 40 μL scintillator was added to each well before the bound radioactivity was measured in a TopCount devise (Perkin Elmer). Non-specific binding was assessed by adding an excess of the reference ligand to the reaction mixture. Finally IC50 values were calculated with the help of appropriate analysis software.

Data set [2] in a line: Biodistribution (brain uptake and wash-out) in mice. In kind it is in vivo, male NMRI mice. The protocol:
Biodistribution and excretion studies were performed in male NMRI mice (body weight app. 30 g; 3 animals per time point). The animals were kept under normal laboratory conditions at a temperature of 22±2° C. and a dark/light rhythm of 12 h. Food and water were provided ad libitium. During an acclimation period of at least 3 days before the beginning of the study animals were clinically examined to ascertain the absence of abnormal clinical signs.
At 2 min, 5 min, 30 min, 1 h, 4 h post intravenous injection via the tail vein of ca. 185 kBq of the test compound, urine and feces were quantitatively collected. At the same time points, animals were sacrificed by decapitation under isoflurane anaesthesia and organs and tissues of interest were removed for the determination of radioactivity using a gamma-counter. For analysis the decay corrected percentage of the injected dose per tissue weight (% ID/g±standard deviation) was calculated.

The target in another data set is T2, amyloid beta plaques (Homo sapiens, UniProt P05067).
T2 construct: Alzheimer's disease patients (AD) with amyloid beta plaques; from tissue; host or cells: fresh frozen and paraffin embedded frontal lobe sections of AD patients
The data set is described as follows: Autoradiographical analysis of binding to human brain sections. Conditions: cortex sections of AD patients; controls from HC and FTD patients; blocking with excess of cold compound. The protocol:
FIG. 4 Autoradiographical analysis of binding of compound 28 to brain sections from cortex of Alzheimer's disease patients (AD) with amyloid beta plaques. Control sections without amyloid beta pathology stem from healthy volunteers (HC) and fronto-temporal dementia (FTD) patients. Blocking of specific signals was performed with an excess of cold compound. […] Fresh frozen as well as paraffin embedded sections of the frontal lobe from Alzheimer's dementia patients, frontotemporal dementia patients and age matched controls were used for the study. Frozen sections, sliced at 18 μm thickness on a cryostate (Leica, Germany) and paraffin sections, sliced on a sliding microtom (Leica) at a thickness of 6 μm, were mounted onto glass slides (Superfrost Plus, Fa. Menzel, Braunschweig Germany). Frozen sections were allowed to adhere to the slides for several nights at −20° C. The paraffin sections were deparaffinized using routine histological methods. For binding studies sections were incubated with the labeled test compound at 10-20 Bq/μL diluted in 25 mM Hepes buffer, pH 7.4, 0.1% BSA (200-300 μL/slide) for 1.5 h. in a humidified chamber. For blocking experiments an excess of the unlabeled test substance was added to the incubation mixture. […] The air-dried sections were exposed to imaging plates and signals were detected by a phosphoimager device (Fuji BAS5000).

T1 sequence (P05067 672-713 limits assumed): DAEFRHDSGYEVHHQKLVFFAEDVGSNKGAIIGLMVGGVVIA
T2 sequence (P05067 672-713 limits assumed): as above

For `O=C(C=CNc1ccc(OCF)cc1)c1ccccc1` (mixture of isomers) [Compound 1, (E/Z)-3-{[4-(Fluoromethoxy)phenyl]amino}-1-phenylprop-2-en-1-one], the IC50 (in general, the point on the concentration scale where inhibition reaches its midpoint) in data set [1] was found to be 9 nM.

With `O=C(C=CNc1ccc(OCCF)cc1)c1ccccc1` (mixture of isomers) [Compound 2, (E/Z)-3-{[4-(2-Fluoroethoxy)phenyl]amino}-1-phenylprop-2-en-1-one], the IC50 in data set [1] was 17 nM.

Turning to `O=C(C=CNc1ccc(OCCF)cc1)c1ccc(-c2ccccc2)cc1` (mixture of isomers) [Compound 14, (E/Z)-1-Biphenyl-4-yl-3-{[4-(2-fluoroethoxy)phenyl]amino}prop-2-en-1-one], the half-inhibitory concentration (IC50) in data set [1] worked out at 140 nM.

`CN(C)c1ccc(NC=CC(=O)c2ccc(F)c(C(F)(F)F)c2)cc1` (mixture of isomers) [Compound 7, (E/Z)-3-{[4-(Dimethylamino)phenyl]amino}-1-[4-fluoro-3-(trifluoromethyl)phenyl]prop-2-en-1-one] had a half-inhibitory concentration (IC50) in data set [1] of 258 nM.

`O=C(C=CNc1ccc(F)cc1)c1ccccc1` (mixture of isomers) [Compound 12, (E/Z)-3-[(4-Fluorophenyl)amino]-1-phenylprop-2-en-1-one] came in with an IC50 in data set [1] of 26 nM.

Regarding `COc1ccc(NC=CC(=O)c2ccc(F)cc2)cc1` (mixture of isomers) [Compound 5, (E/Z)-1-(4-Fluorophenyl)-3-[(4-methoxyphenyl)amino]prop-2-en-1-one], in data set [1], the concentration for half-maximal inhibition (IC50) was determined as 400 nM.

Molecule `COc1ccc(NC=CC(=O)c2ccc(F)nc2)cc1` (mixture of isomers) [Compound 11, (E/Z)-1-(6-Fluoropyridin-3-yl)-3-[(4-methoxyphenyl)amino]prop-2-en-1-one] gave a 50% inhibitory concentration (IC50) in data set [1] of 28 nM.

`CN(C)c1ccc(NC=CC(=O)c2ccc(F)nc2)cc1` (mixture of isomers) [Compound 10, (E/Z)-3-{[4-(Dimethylamino)phenyl]amino}-1-(6-fluoropyridin-3-yl)prop-2-en-1-one]: the 50% inhibitory concentration (IC50) in data set [1] turned out to be 4 nM.

As to `O=C(C=CNc1ccc(OCCF)cc1)c1ccc(Br)cc1` (mixture of isomers) [Compound 3, (E/Z)-1-(4-Bromophenyl)-3-{[4-(2-fluoroethoxy)phenyl]amino}prop-2-en-1-one], in data set [1], the IC50 worked out at 13 nM.

With `CN(C)c1ccc(NC=CC(=O)c2ccc(F)cc2)cc1` (mixture of isomers) [Compound 6, (E/Z)-3-{[4-(Dimethylamino)phenyl]amino}-1-(4-fluorophenyl)prop-2-en-1-one], in data set [1], the IC50 came out at 5 nM.

Molecule `O=C(/C=C\Nc1ccc(OCCCF)cc1)c1ccccc1` [Compound 4, (Z)-3-{[4-(3-Fluoropropoxy)phenyl]amino}-1-phenylprop-2-en-1-one] returned a half-maximal inhibitory concentration (IC50) in data set [1] of 18 nM.

`CN(C)c1ccc(NC=CC(=O)c2ccc([18F])nc2)cc1` (mixture of isomers) [Compound 28, (E/Z)-3-{[4-(Dimethylamino)phenyl]amino}-1-(6-[^18F]-fluoropyridin-3-yl)prop-2-en-1-one]: the “Brain uptake and elimination of the radioactive background signal from the brain (in words)” value in data set [2] (healthy mouse brain, devoid of plaques) is listed as “advantageous rapid elimination of the radioactive background signal from the brain”. The “Brain uptake at 2 min” value in data set [2] (mice, 2 min after intravenous injection, [18F] signal, healthy brain) was 7.66 % ID/g. Besides, the “Brain uptake at 30 min” value in data set [2] (mice, 30 min after intravenous injection, [18F] signal, healthy brain) is 0.78 % ID/g. For the same molecule, the “Brain wash-out ratio [% ID/g at 2 min]/[% ID/g at 30 min]” value in data set [2] (mice, intravenous injection, healthy brain) is on record as 9.8. Besides, the “Autoradiographic binding to brain sections (in words)” value at amyloid beta plaques is “plaque-specific signals”.

As to `O=C(C=CNc1ccc(F)c(Br)c1)c1ccccc1` (mixture of isomers) [Compound 13, (E/Z)-3-[(3-Bromo-4-fluorophenyl)amino]-1-phenylprop-2-en-1-one], in data set [1], the IC50 was found to be 46 nM. This counts as double-digit nanomolar.
